Data as given in patent US20220380368A1, “SPIROCYCLIC ANDROGEN RECEPTOR PROTEIN DEGRADERS” (THE REGENTS OF THE UNIVERSITY OF MICHIGAN, priority 2019, published 2022).
Read-outs that look alike come from different tables or passages of the source.

How the values were obtained:
AR protein = target: T1, AR protein (Homo sapiens, UniProt P10275); assay: Western blotting analysis of AR protein levels in VCaP cells, band quantification, DC50/DC90; type: cell-based
T1 construct: endogenous in cells; host or cells: VCaP
T1 sequence (P10275 1-920): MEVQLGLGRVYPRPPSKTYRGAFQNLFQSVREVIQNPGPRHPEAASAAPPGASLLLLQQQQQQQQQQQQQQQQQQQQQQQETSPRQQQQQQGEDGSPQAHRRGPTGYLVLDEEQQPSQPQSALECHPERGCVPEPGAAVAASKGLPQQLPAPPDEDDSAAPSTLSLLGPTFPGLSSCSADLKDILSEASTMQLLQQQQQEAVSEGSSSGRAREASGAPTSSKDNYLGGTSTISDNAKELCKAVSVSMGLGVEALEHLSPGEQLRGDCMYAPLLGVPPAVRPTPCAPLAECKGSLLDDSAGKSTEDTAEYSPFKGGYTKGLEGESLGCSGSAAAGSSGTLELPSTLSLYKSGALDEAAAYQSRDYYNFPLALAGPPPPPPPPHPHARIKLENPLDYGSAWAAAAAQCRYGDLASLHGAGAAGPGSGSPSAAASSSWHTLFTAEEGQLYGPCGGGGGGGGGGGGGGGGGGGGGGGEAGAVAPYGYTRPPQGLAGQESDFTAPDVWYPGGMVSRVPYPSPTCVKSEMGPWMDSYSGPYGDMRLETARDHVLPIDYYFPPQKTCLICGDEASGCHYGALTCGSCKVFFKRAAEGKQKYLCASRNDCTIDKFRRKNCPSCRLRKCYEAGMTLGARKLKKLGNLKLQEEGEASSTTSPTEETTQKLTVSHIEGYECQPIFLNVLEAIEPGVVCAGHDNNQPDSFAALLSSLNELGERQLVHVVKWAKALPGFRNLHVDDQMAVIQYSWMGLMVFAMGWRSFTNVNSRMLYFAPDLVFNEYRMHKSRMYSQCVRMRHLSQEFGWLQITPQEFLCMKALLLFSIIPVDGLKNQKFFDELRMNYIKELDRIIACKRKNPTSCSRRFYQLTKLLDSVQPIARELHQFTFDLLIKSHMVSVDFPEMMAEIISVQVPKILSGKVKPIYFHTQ
How it was run: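 VCaP cells treated with compounds, lysed in RIPA and probed for AR by Western blot with GAPDH loading control. Band intensities normalised to GAPDH; DC50 from curve fit, DC90 calculated from DC50 and Hill slope via four-parameter equation.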

[1] = Mouse PK studies after oral and IV dosing; type: in vivo; conditions: for F: PO 3 mg/kg vs IV 1 mg/kg; for AUC(0-t) / clearance / half-life / Vd / Cmax / Tmax: in vivo; for clearance: read-out: IV Cl (converted); for Vd: read-out: IV VSS
Procedure: The pharmacokinetics of representative Compounds of the Disclosure were determined after oral and IV dosing at the concentrations indicated in mouse (Table 7). […] The vehicles used in these studies are either (i) 10% PEG400+90% PBS (adjusted to pH to 8.0 by 0.5 N NaOH); or (ii) 100% PEG200.

[2] = VCaP cells, Table 6; read-out: VCaP DC50
[3] = iv, 1 mg/kg, IV, dose 1 mg/kg, read-out: IV AUC(0 − t)
[4] = iv, 1 mg/kg, IV, dose 1 mg/kg, read-out: IV T1/2 (converted)
[5] = po, 3 mg/kg, PO, dose 3 mg/kg, read-out: PO AUC(0 − t)
[6] = po, 3 mg/kg, PO, dose 3 mg/kg, read-out: PO T1/2 (converted)

Compound | DC50 (AR protein; [2]) | F [1] | AUC(0-t) [1, 3] | clearance ([1]; iv, 1 mg/kg, IV, dose 1 mg/kg) | half-life [1, 4] | Vd ([1]; iv, 1 mg/kg, IV, dose 1 mg/kg) | Cmax ([1]; po, 3 mg/kg) | Tmax ([1]; po, 3 mg/kg) | AUC(0-t) [1, 5] | half-life [1, 6] | DC50 (AR protein; read-out: VCaP DC50; VCaP cells, Table 6)
C[C@H]1CC2(CCN(c3ccc(C(=O)N4CCC(CN5Cc6cc7c(cc6C5)C(=O)N(C5CCC(=O)NC5=O)C7=O)CC4)nn3)CC2)CN1c1ccc(C#N)c(Cl)c1 (stereo partly drawn) [Cpd. No. 496, 2-chloro-4-((3S)-8-(6-(4-((6-(2,6-dioxopiperidin-3-yl)-5,7-dioxo-3,5,6,7-tetrahydropyrrolo[3,4-f]isoindol-2(1H)-yl)methyl)piperidine-1-carbonyl)pyridazin-3-yl)-3-methyl-2,8-diazaspiro[4.5]decan-2-yl)benzonitrile] | < 1 nM | 72% | 3030 ng·h/mL | 5.33 mL/min/kg | 5.8 h | 1.46 L/kg | 1420 ng/mL | 1 h | 6550 ng·h/mL | 4.1 h | 
C[C@H]1CC2(CCN(c3cnc(C(=O)N4CCC(N5CCN(c6ccc7c(c6)C(=O)N(C6CCC(=O)NC6=O)C7=O)CC5)CC4)cn3)CC2)CN1c1ccc(C#N)c(Cl)c1 (stereo partly drawn) [Cpd. No. 497, 2-chloro-4-((3S)-8-(5-(4-(4-(2-(2,6-dioxopiperidin-3-yl)-1,3-dioxoisoindolin-5-yl)piperazin-1-yl)piperidine-1-carbonyl)pyrazin-2-yl)-3-methyl-2,8-diazaspiro[4.5]decan-2-yl)benzonitrile] | < 1 nM | 30% | 849 ng·h/mL | 18.8 mL/min/kg | 2.7 h | 2 L/kg | 336 ng/mL | 0.5 h | 760 ng·h/mL | 2 h | 
C[C@H]1CC2(CCN(c3cnc(C(=O)N4CCC(N5CCN(c6cc7c(cc6F)C(=O)N(C6CCC(=O)NC6=O)C7=O)CC5)CC4)cn3)CC2)CN1c1ccc(C#N)c(Cl)c1 (stereo partly drawn) [Cpd. No. 498, 2-chloro-4-((3S)-8-(5-(4-(4-(2-(2,6-dioxopiperidin-3-yl)-6-fluoro-1,3-dioxoisoindolin-5-yl)piperazin-1-yl)piperidine-1-carbonyl)pyrazin-2-yl)-3-methyl-2,8-diazaspiro[4.5]decan-2-yl)benzonitrile] | 1 to 10 nM | 45% | 419 ng·h/mL | 36.8 mL/min/kg | 1.9 h | 3.22 L/kg | 191 ng/mL | 0.8 h | 572 ng·h/mL | 2.3 h | 
C[C@H]1CC2(CCN(c3ccc(C(=O)N4CCC(N5CCN(c6ccc7c(c6)C(=O)N(C6CCC(=O)NC6=O)C7=O)CC5)CC4)nn3)CC2)CN1c1ccc(C#N)c(Cl)c1 (stereo partly drawn) [Cpd. No. 499, 2-chloro-4-((3S)-8-(6-(4-(4-(2-(2,6-dioxopiperidin-3-yl)-1,3-dioxoisoindolin-5-yl)piperazin-1-yl)piperidine-1-carbonyl)pyridazin-3-yl)-3-methyl-2,8-diazaspiro[4.5]decan-2-yl)benzonitrile] | < 1 nM | 29% | 1920 ng·h/mL | 8.17 mL/min/kg | 3.6 h | 1.73 L/kg | 404 ng/mL | 1.3 h | 1670 ng·h/mL | 2 h | 
C[C@H]1CC2(CCN(c3ccc(C(=O)N4CCC(N5CCN(c6cc7c(cc6F)C(=O)N(C6CCC(=O)NC6=O)C7=O)CC5)CC4)nn3)CC2)CN1c1ccc(C#N)c(Cl)c1 (stereo partly drawn) [Cpd. No. 500, 2-chloro-4-((3S)-8-(6-(4-(4-(2-(2,6-dioxopiperidin-3-yl)-6-fluoro-1,3-dioxoisoindolin-5-yl)piperazin-1-yl)piperidine-1-carbonyl)pyridazin-3-yl)-3-methyl-2,8-diazaspiro[4.5]decan-2-yl)benzonitrile] | 1 to 10 nM | 60% | 1880 ng·h/mL | 7.83 mL/min/kg | 2.6 h | 1.53 L/kg | 711 ng/mL | 1.7 h | 3750 ng·h/mL | 2 h | 
C[C@H]1CC2(CCN(c3ccc(C(=O)N4CCN(CC5CN(c6cc7c(cc6F)C(=O)N(C6CCC(=O)NC6=O)C7=O)C5)CC4)cc3)CC2)CN1c1ccc(C#N)c(Cl)c1 (stereo partly drawn) [Cpd. No. 502, 2-chloro-4-((3S)-8-(4-(4-((1-(2-(2,6-dioxopiperidin-3-yl)-6-fluoro-1,3-dioxoisoindolin-5-yl)azetidin-3-yl)methyl)piperazine-1-carbonyl)phenyl)-3-methyl-2,8-diazaspiro[4.5]decan-2-yl)benzonitrile] | < 1 nM | 32% | 3490 ng·h/mL | 3.33 mL/min/kg | 10 h | 3 L/kg | 289 ng/mL | 3.3 h | 3390 ng·h/mL | 9.5 h | 
C[C@H]1CC2(CCN(c3ccc(C(=O)N4CCN(C5CN(c6ccc7c(c6)C(=O)N(C6CCC(=O)NC6=O)C7=O)C5)CC4)cc3F)CC2)CN1c1ccc(C#N)c(Cl)c1 (stereo partly drawn) [Cpd. No. 510, 2-chloro-4-((3S)-8-(4-(4-(1-(2-(2,6-dioxopiperidin-3-yl)-1,3-dioxoisoindolin-5-yl)azetidin-3-yl)piperazine-1-carbonyl)-2-fluorophenyl)-3-methyl-2,8-diazaspiro[4.5]decan-2-yl)benzonitrile] |  | 51% | 4080 ng·h/mL | 3.33 mL/min/kg | 8.3 h | 2.1 L/kg | 518 ng/mL | 2.7 h | 6270 ng·h/mL | 7.2 h | < 1 nM
C[C@H]1CC2(CCN(c3ccc(C(=O)N4CCC(N5CCN(c6ccc7c(c6)C(=O)N(C6CCC(=O)NC6=O)C7=O)CC5)CC4)cc3F)CC2)CN1c1ccc(C#N)c(Cl)c1 (stereo partly drawn) [Cpd. No. 511, 2-chloro-4-((3S)-8-(4-(4-(4-(2-(2,6-dioxopiperidin-3-yl)-1,3-dioxoisoindolin-5-yl)piperazin-1-yl)piperidine-1-carbonyl)-2-fluorophenyl)-3-methyl-2,8-diazaspiro[4.5]decan-2-yl)benzonitrile] | < 1 nM | 28% | 9040 ng·h/mL | 1.67 mL/min/kg | 8 h | 0.9 L/kg | 668 ng/mL | 2.7 h | 7520 ng·h/mL | 6.4 h | 
C[C@H]1CC2(CCN(c3ccc(C(=O)N4CCN(C5CCN(c6ccc7c(c6)C(=O)N(C6CCC(=O)NC6=O)C7=O)CC5)CC4)cc3F)CC2)CN1c1ccc(C#N)c(Cl)c1 (stereo partly drawn) [Cpd. No. 521, 2-chloro-4-((3S)-8-(4-(4-(1-(2-(2,6-dioxopiperidin-3-yl)-1,3-dioxoisoindolin-5-yl)piperidin-4-yl)piperazine-1-carbonyl)-2-fluorophenyl)-3-methyl-2,8-diazaspiro[4.5]decan-2-yl)benzonitrile] | < 1 nM | 30% | 2990 ng·h/mL | 5 mL/min/kg | 8.2 h | 3.1 L/kg | 344 ng/mL | 1.7 h | 2730 ng·h/mL | 7 h | 
